Active and inactive are the calls of the source. No cut-off for these calls is given here.
Experiments:
[1] = molecular target: T1, Adenosine receptor A1 (Rattus norvegicus) (UniProt P25099); experiment: Displacement of [3H]CCPA from A1 receptor in rat brain cortex membranes at 1.5 uM by liquid scintillation counting method; format: cell membranes
T1 sequence (whole entry): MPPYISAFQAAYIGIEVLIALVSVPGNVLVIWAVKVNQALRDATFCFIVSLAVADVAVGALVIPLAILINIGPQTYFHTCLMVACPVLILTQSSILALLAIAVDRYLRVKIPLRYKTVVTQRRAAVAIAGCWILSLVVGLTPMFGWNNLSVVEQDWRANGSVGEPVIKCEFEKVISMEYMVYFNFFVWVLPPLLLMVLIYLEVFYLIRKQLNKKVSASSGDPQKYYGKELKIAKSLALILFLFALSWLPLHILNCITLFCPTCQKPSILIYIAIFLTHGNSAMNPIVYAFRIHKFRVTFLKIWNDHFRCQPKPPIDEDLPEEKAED

[2] = molecular target: T2, Adenosine receptor A3 (Homo sapiens) (UniProt P0DMS8); experiment: Displacement of [3H]PSB-11 from human A3 receptor expressed in CHO cell membrane at 10 uM by liquid scintillation counting method relative to control relative to control; format: cell membranes
T2 sequence (whole entry): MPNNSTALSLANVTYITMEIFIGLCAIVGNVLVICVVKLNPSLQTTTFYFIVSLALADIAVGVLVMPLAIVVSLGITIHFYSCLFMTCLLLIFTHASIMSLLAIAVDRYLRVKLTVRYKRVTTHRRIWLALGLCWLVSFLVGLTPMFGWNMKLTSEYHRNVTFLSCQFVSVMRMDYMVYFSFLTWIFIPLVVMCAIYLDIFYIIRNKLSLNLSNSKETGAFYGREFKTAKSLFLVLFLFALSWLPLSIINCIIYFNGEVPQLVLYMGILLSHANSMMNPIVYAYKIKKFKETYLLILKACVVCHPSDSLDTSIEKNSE

[3] = molecular target: T3, Adenosine receptor A3 (Homo sapiens, UniProt P0DMS8); experiment: Displacement of [3H]PSB-11 from human A3 receptor expressed in CHO cell membrane by liquid scintillation counting method relative to control; format: cell membranes
T3 sequence (P0DMS8 whole entry): T2 sequence (whole entry)

[4] = molecular target: T4, Adenosine receptor A1 (Homo sapiens) (UniProt P30542); experiment: Displacement of [3H]CCPA from human A1 receptor expressed in CHO cell membrane at 10 uM by liquid scintillation counting method; format: cell membranes
T4 sequence (whole entry): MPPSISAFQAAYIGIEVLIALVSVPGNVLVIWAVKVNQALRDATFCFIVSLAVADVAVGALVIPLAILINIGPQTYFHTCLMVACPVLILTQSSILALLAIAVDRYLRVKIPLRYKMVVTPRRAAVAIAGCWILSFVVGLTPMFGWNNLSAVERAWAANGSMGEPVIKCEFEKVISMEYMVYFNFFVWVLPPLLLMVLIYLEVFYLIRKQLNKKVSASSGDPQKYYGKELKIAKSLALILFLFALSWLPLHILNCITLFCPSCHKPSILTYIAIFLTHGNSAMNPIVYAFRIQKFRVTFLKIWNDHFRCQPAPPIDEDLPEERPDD

[5] = molecular target: T5, Adenosine receptor A2b (Homo sapiens) (UniProt P29275); experiment: Displacement of [3H]PSB-603 from human A2B receptor expressed in CHO cell membrane at 1 uM relative to control; format: cell membranes
T5 sequence (whole entry): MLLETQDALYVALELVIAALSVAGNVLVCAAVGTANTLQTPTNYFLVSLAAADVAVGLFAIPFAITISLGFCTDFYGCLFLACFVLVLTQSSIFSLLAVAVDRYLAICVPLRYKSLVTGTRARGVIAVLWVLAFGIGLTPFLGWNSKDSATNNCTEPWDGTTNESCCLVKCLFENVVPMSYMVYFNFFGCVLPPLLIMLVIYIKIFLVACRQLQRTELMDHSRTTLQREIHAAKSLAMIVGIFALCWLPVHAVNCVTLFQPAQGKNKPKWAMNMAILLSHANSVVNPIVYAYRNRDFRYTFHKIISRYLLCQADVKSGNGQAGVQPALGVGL

[6] = molecular target: T4, Adenosine receptor A1 (Homo sapiens); experiment: Agonist activity at recombinant human A1 receptor expressed in CHO cells assessed as inhibition of forskolin-induced cAMP accumulation at 1 uM preincubated for 20 mins prior to forskolin-stimulation measure after 5 mins by liquid scintillation counting method; format: functional, cell-based
[7] = molecular target: T6, Adenosine receptor A2a (Homo sapiens, UniProt P29274); experiment: Agonist activity at recombinant human A2A receptor expressed in CHO cells assessed as increase in forskolin-induced cAMP level at 1 uM preincubated for 20 mins prior to forskolin-stimulation measure after 5 mins by liquid scintillation counting method; format: functional, cell-based
[8] = molecular target: T7, Adenosine receptor A1 (Rattus norvegicus, UniProt P25099); experiment: Displacement of [3H]CCPA from A1 receptor in rat brain cortex membranes by liquid scintillation counting method; format: cell membranes
T7 sequence (P25099 whole entry): T1 sequence (whole entry)

[9] = molecular target: T4, Adenosine receptor A1 (Homo sapiens); experiment: Agonist activity at recombinant human A1 receptor expressed in CHO cells assessed as inhibition of forskolin-induced cAMP accumulation at 10 uM preincubated for 20 mins prior to forskolin-stimulation measure after 5 mins by liquid scintillation counting method; format: functional, cell-based
[10] = molecular target: T5, Adenosine receptor A2b (Homo sapiens); experiment: Displacement of [3H]PSB-603 from human A2B receptor expressed in CHO cell membrane at 0.3 uM relative to control; format: cell membranes
[11] = molecular target: T6, Adenosine receptor A2a; experiment: Agonist activity at recombinant human A2A receptor expressed in CHO cells assessed as increase in forskolin-induced cAMP level at 10 uM preincubated for 20 mins prior to forskolin-stimulation measure after 5 mins by liquid scintillation counting method; format: functional, cell-based

T6 sequence (P29274 whole entry): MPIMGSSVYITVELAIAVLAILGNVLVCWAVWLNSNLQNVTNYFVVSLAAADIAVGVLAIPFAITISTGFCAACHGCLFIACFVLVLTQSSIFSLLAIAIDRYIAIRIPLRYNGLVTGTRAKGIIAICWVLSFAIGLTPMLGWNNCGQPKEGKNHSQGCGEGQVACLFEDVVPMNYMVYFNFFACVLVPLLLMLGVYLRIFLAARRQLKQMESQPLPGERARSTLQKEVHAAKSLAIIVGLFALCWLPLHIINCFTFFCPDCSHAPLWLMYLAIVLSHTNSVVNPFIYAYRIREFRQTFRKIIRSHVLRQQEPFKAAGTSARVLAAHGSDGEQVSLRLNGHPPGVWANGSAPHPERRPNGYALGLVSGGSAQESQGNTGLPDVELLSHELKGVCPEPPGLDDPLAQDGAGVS

Compound | Activity [1] | Activity [2] | Ki [3] | Activity [4] | Activity [5] | Activity [6] | Activity [7] | Ki [8] | Activity [9] | Activity [10] | Activity [11]
Cn1c(=O)c2c(nc3n2CCN(c2cccc(Cl)c2)C3)n(C)c1=O | 37% | 20% | > 10 µM | 37% | 23% |  |  |  |  |  | 
Cn1c(=O)c2c(nc3n2CCN([C@@H]2CCCc4ccccc42)C3)n(C)c1=O |  |  | 14 µM |  |  | inactive | inactive | 0.1 µM | inactive | 1% | inactive
